experiment: in vitro; details: human, hela cells, % viability

Point of comparison: `CN1CCN(C(=O)Nc2ccc(Cc3ccc(NC(=O)N4CCN(C)CC4)cc3)cc2)CC1` [CBK264852], viability at 28.5 h, 10 µM 104%. Against it:
- O=C(c1ccc(F)cc1)C1CCN(C(=O)c2cccnc2NCc2ccc3c(c2)OCO3)CC1 [CBK160114] — higher, 113%
- c1cnc2[nH]c(C3CCNCC3)c(CN3CCCCCC3)c2c1 [CBK285057] — lower, 102%
- COc1ccc(N2CCN(c3nc(OC)nc(OC)n3)CC2)cc1 [CBK264245] — lower, 100%
- COc1cc2nc(NC(=O)c3ccccc3)sc2cc1OC [CBK287701] — lower, 82.3%
- Cn1cccc1C(=O)N[C@H]1C[C@@H]2C(=O)N[C@H]3CCN(C(=O)C4CCCC4)[C@@H]3C(=O)N2C1 [CBK289272] — lower, 97.1%
- COc1ccccc1-c1ccc(CNC(Cc2ccsc2)c2nccs2)cc1 (centres unmarked) [CBK286315] — lower, 86.7%
- COc1cc(C)c(NC(=O)C(=S)NCc2ccco2)cc1C [CBK268582] — lower, 103%
- O=C(CCn1c(=O)oc2ccccc21)Nc1ccc2c(c1)CN(Cc1ccccc1)C2 [CBK285946] — higher, 120%
- COc1ccc(C(=O)N2CC[C@H]3CC(=O)N(CCN4CCNC4=O)CC[C@H]3C2)cc1 [CBK288795] — higher, 110%
- COc1ccc(C(=O)Nc2ccccc2C(=O)N2CCOCC2)cc1Br [CBK269923] — lower, 85.4%
- CC(C)(C)OC(=O)N1CCC[C@H]([C@H](O)c2cccs2)C1 [CBK282301] — lower, 102%
- O=C(Nc1ccc(Cl)cc1C(=O)O)c1ccccc1Cl [CBK000171] — lower, 91.4%
- O=C(C1CCCN(CC(O)c2cccs2)C1)N1CCCCCC1 (centres unmarked) [CBK282117] — lower, 100%
- Nc1ncc(-c2cccc(OC(F)(F)F)c2)nc1-c1ccc(CCC(=O)O)cc1 [CBK064071] — lower, 95.2%
- Cn1cc(C(=O)NC2CCN(c3ccc(C#N)cc3F)CC2)cn1 [CBK304939] — lower, 83.7%
- CCCCCCSc1ccc(C(=O)CCCN2CCOCC2)cc1 [CBK010344] — higher, 116%
- Cc1cccc(N2CCN(C(=O)C3C4CCC(O4)C3C(=O)O)CC2)c1C (centres unmarked) [CBK287044] — lower, 90%
- CCOc1ccc2c(c1)cc(C(=O)NCc1cc(CC)no1)n2C [CBK281553] — lower, 95.5%
- Cc1noc(C)c1CC(=O)NC(C)CCc1ccc(F)cc1 (centres unmarked) [CBK281511] — lower, 89.8%
- CNc1nc(N(C)C)nc(-n2cnc(SCCOc3ccccc3C)n2)n1 [CBK288564] — lower, 92.4%
- Cc1cc(COc2nccnc2OC2CCN(Cc3ccccc3F)CC2)no1 [CBK082948T] — higher, 109%
- Cc1ccnn1CCC(=O)N1CCn2cc(C(F)(F)F)nc2C1 [CBK283912] — higher, 110%
- COc1ccc2[nH]cc(CCNC3CCc4cccc(OC)c4C3)c2c1 (centres unmarked) [CBK016569C] — lower, 80.1%
- CCN1CCN(c2ccc(NS(=O)(=O)c3ccccc3)c3ccccc23)CC1 [CBK200011C] — lower, 88.3%
- Cc1cc(CN2CCN(c3nc(-c4ccccc4)nc4ccccc34)CC2)no1 [CBK296654] — lower, 87.7%
- Cc1ccc(CN2CCCN(C(=O)Cn3nc4ccccn4c3=O)CC2)cc1 [CBK297768] — lower, 79.7%
- CNC(=O)CSc1nnc2[nH]c(=O)c(C)c(C)n12 [CBK287687] — higher, 108%
- Nc1ncnc2c1ccn2[C@H]1C[C@@H](O)[C@@H](CO)O1 [CBK201258] — lower, 95.5%
- Cc1ccc(NC(=O)CCc2c(C)nc(N3CCOCC3)[nH]c2=O)cc1 [CBK304985] — lower, 98.2%
- Cc1ccc(C)c(NC(=O)CCc2c(C)[nH]c3ncnn3c2=O)c1 [CBK304646] — lower, 94.5%
- Cc1cc(Cl)c(OCCN2CCCCCC2)c(Br)c1 [CBK266049G] — lower, 91.7%
- CCCc1n[nH]c(=S)n1CC(=O)NCc1ccc(Oc2cc(C)ccc2C)nc1 [CBK297742] — lower, 87.5%
- CC(CCCC(C)(C)O)Nc1cncc(-c2ccccc2CO)n1 (centres unmarked) [CBK065529] — lower, 96.3%

same assay, conditions: human, hela cells, % viability, bulk resorufin, single well

Work on `O=C(Nc1cccc(-c2ccc3c(c2)COC2(CCNCC2)O3)c1)c1cnccn1` [CBK093670] yielded a viability at 28.5 h, 10 µM of 90.5%.
